Experimental data as given in patent US20230028224A1, “Novel Topical Therapy” (priority 2019, published 2023).

Columns and labels:
[1] = injection of occipital nerves followed by SPG block; format: in vivo; conditions: 0.5% injected into occipital nerves, then SPG block
Excerpt: (§1) Another aspect of the invention is the combination of stimulation of SPG with branches of Trigeminal nerves, or occipital nerves. There is known C-2 and 3 connection with Trigeminal nerve and SPG and likely with C1.

[2] = injection of the Supratrochlear nerve followed by SPG block; format: in vivo; conditions: bupivacaine 0.5% injected to the Supratrochlear nerve, SPG block subsequently
Excerpt: as §1

For CCCCN1CCCCC1C(=O)Nc1c(C)cccc1C (centres unmarked) [bupivacaine], which headache [1] is on record?
The headache was “headache was further decreased with SPG block”.

And the “result of subsequent SPG block” value [2]?
Its value is “better result with SPG block subsequently”.
